Experimental data taken from patent US8546421B1, “Oncogenic-RAS-signal dependent lethal compounds” (The Trustees of Columbia University in the City of New York, priority 2007, dated 2013).
Converted amounts (≈) assume the structure as drawn. Like-named read-outs stand apart in the source and are kept apart here.

How the values were obtained:
Calu-1 = test: Alamar Blue assay, additional cell lines; type: cell-based, human
From the text: (§1) The results of this additional testing are summarized in Tables 7-10 (no additional cell lines were identified as sensitive for Compound 3). […] The tumor type, cell line, maximum percentage inhibition, the concentration of compound required to inhibit cell growth by 50%, and RAS mutation (if any) are also summarized.

PaCa-2 = test: Alamar Blue assay, additional cell lines; type: cell-based, human; conditions: Pancreatic Cancer
From the text: as §1

[1] = test system: BJ-TERT/LT/ST/RAS^V12 cells; test: Alamar blue growth inhibition in dilution series; type: cell-based, human
[2] = test system: A549, Calu-1, PaCa, and HCT116 cells; test: Alamar blue assay in KRAS-mutation-harboring cancer cells; type: cell-based, human
Procedure: A549, Calu-1, HCT116 and MIA PaCa-2 cell lines have an oncogenic mutation in the KRAS gene. Compounds which tested positive in the oncogenic HRAS primary screen were also tested for their selectivity against oncogenic KRAS which is more commonly mutated in human cancers.

HL-60(TB) = test: cells; conditions: Homo sapiens
RPMI-8226 = test: NCI60 anti-cancer screening
HOP-92 = test: NCI60 anti-cancer screening
NCI-H522 = test: NCI60 anti-cancer screening
HCT-116 = test: NCI60 anti-cancer screening
HT29 = test: NCI60 anti-cancer screening
KM12 = test: NCI60 anti-cancer screening
SW-620 = test: NCI60 anti-cancer screening
SF-268 = test: NCI60 anti-cancer screening
LOX IMVI = test: NCI60 anti-cancer screening
MALME-3M = test: NCI60 anti-cancer screening
M14 = test: NCI60 anti-cancer screening
SK-MEL-2 = test: NCI60 anti-cancer screening
UACC-62 = test: NCI60 anti-cancer screening
OVCAR-4 = test: NCI60 anti-cancer screening
786-0 = test: NCI60 anti-cancer screening
SN12C = test: NCI60 anti-cancer screening
UO-31 = test: NCI60 anti-cancer screening
NCI/ADR-RES = test: NCI60 anti-cancer screening
MDA-MB-231/ATCC = test: NCI60 anti-cancer screening
HS 578T = test: NCI60 anti-cancer screening
BT-549 = test: NCI60 anti-cancer screening
[3] = test system: BJ cell system (BJ-TERT, BJ-TERT/LT/ST, BJ-TERT/LT/ST/RAS^V12, DRD cells); test: Alamar blue potency and selectivity in the engineered BJ cell system; conditions: oncogenic-RAS-expressing vs non-oncogenic-RAS-expressing BJ cells; alamar blue
Procedure: Empty “step-daughter plates” were filled with 50 μL DMEM, except for columns 3 and 13, where 100 μL of hit compound solution were cherry-picked from daughter plates. After compound transfer, 2-fold dilution series across columns 3 through 12 and columns 13 through 22 was made by transferring 50 μL of compound solution to the next column successively (10-point dilution series), with extensive mixing. Hit-picking and 2-fold dilution series were carried out using Biomek FX Span-8 module (Beckman Coulter). Assay plates were prepared by seeding 1,000 BJ-TERT, BJ-TERT/LT/ST, and BJ-TERT/LT/ST/RAS^V12 cells per well in 36 μL growth medium. Cells in assay plates were treated with compounds from step-daughter plates by transferring 4 μL. The final concentration of the compound was 5.33 μg/mL to 0.01 μg/mL in this 10-point, 2-fold dilution series. Assay plates were returned to the culture incubator and maintained for 48 hours before adding alamar blue.
Fresh daughter plates were made from the mother plate and cherry-picked hits from the first round, 2-fold dilution series experiment as described above. Assay plates were prepared by seeding 1,000 BJ-TERT, BJ-TERT/LT/ST, BJ-TERT/LT/ST/RAS^V12 or BJ-TERT/p53DD/CDK4/cyclinD1/ST/RAS^V12 (DRD) cells per well in 32 μL growth media. Cells in the assay plates were treated with compounds from the step-daughter plate by transferring 8 μL solution. The final concentration of the compound was 10.66 μg/mL to 0.02 μg/mL in a 10-point, 2-fold dilution series manner. Assay plates were returned to the culture incubator and maintained for 48 hours before adding alamar blue.
Cells were seeded in 384-well assay plates, treated with candidate compounds, and incubated in the culture incubator in 40 μL culture volume per well. […] Plates were incubated further for 16 hours to allow reduction of alamar blue, which results in the generation of red fluorescence. The fluorescence intensity was determined using a Victor 3 plate reader (Perkin Elmer) with a 535 nm excitation filter and a 590 nm emission filter.
In the subsequent two-fold dilution series testing, selectivity was calculated as the ratio of GI50 values in BJ-TERT/LT/ST and BJ-TERT/LT/ST/RAS^V12 cells. […] DRD cells are also derived from BJ primary cells and the effects of mutations in both lines should be similar.

SMILES: COC(=O)c1ccc(C2c3[nH]c4ccccc4c3CC(C(=O)OC)N2C(=O)CCl)cc1 (stereo not drawn) [Compound 27]
- Maximum Inhibition % (Calu-1; Calu-1, Non-small cell lung carcinoma, Alamar Blue): 100%
- IC90 (in words) (Calu-1; Calu-1 cells, alamar blue): single-digit nanomolar range
- GI50 (Calu-1; Homo sapiens, Calu-1, Non-small cell lung carcinoma, Alamar Blue): 0.001 µM
- IC50 (Calu-1; Homo sapiens, Calu-1 cells, treated for 24 hour, alamar blue): 0.02 µg/mL (≈ 0.0454 µM)
- GI50 (PaCa-2; Homo sapiens): 0.125 µM
- Maximum Inhibition % (PaCa-2): 100%
- concentration at which growth was inhibited (as low as) [1]: ≥ 0.01 µg/mL
- concentration at which growth was inhibited (as low as) ([1]; 48 hours): ≥ 0.01 µg/mL
- activity in KRAS-mutation-harboring cancer cells (in words) [2]: active in all oncogenic-KRAS-harboring cancer cell lines tested
- GI50 (HL-60(TB); HL-60): 0.28 µM
- CC50 (HL-60(TB); HL-60, read-out: LC 50%): 1.2 µM
- GI50 (RPMI-8226; Homo sapiens, RPMI-8226): 0.0431 µM
- CC50 (RPMI-8226; Homo sapiens, RPMI-8226, read-out: LC 50%): 6.99 µM
- GI 100% (RPMI-8226; RPMI-8226, Leukemia): 2.22 µM
- GI 100% (HOP-92; HOP-92, Non-small cell lung carcinoma): 1.07 µM
- GI50 (HOP-92; Homo sapiens, HOP-92): 0.0991 µM
- CC50 (HOP-92; Homo sapiens, HOP-92, read-out: LC 50%): 5.85 µM
- GI50 (NCI-H522; Homo sapiens, NCI-H522): 1.63 µM
- CC50 (NCI-H522; Homo sapiens, NCI-H522, read-out: LC 50%): 8.58 µM
- GI 100% (NCI-H522; NCI-H522, Non-small cell lung carcinoma): 3.74 µM
- GI 100% (HCT-116; HCT-116, Colon Cancer): 1.48 µM
- GI50 (HCT-116; Homo sapiens, HCT-116): 0.364 µM
- CC50 (HCT-116; Homo sapiens, HCT-116, read-out: LC 50%): 3.84 µM
- GI 100% (HT29; HT29, Colon Cancer): 1.46 µM
- GI50 (HT29; Homo sapiens, HT-29): 0.415 µM
- CC50 (HT29; Homo sapiens, HT-29, read-out: LC 50%): 4.06 µM
- GI50 (KM12; Homo sapiens, KM12): 0.188 µM
- CC50 (KM12; Homo sapiens, KM12, read-out: LC 50%): 4.15 µM
- GI 100% (KM12; KM12, Colon Cancer): 1.19 µM
- GI50 (SW-620; Homo sapiens, SW-620): 0.681 µM
- CC50 (SW-620; Homo sapiens, SW-620, read-out: LC 50%): 5.25 µM
- GI 100% (SW-620; SW-620, Colon Cancer): 2.09 µM
- GI50 (SF-268; Homo sapiens, SF-268): 0.0692 µM
- CC50 (SF-268; Homo sapiens, SF-268, read-out: LC 50%): 0.577 µM
- GI 100% (SF-268; SF-268, CNS Cancer): 0.218 µM
- GI50 (LOX IMVI; Homo sapiens): 0.182 µM
- CC50 (LOX IMVI; Homo sapiens, read-out: LC 50%): 0.826 µM
- GI 100% (LOX IMVI; Melanoma): 0.387 µM
- GI50 (MALME-3M; Homo sapiens, Malme-3M): 0.406 µM
- CC50 (MALME-3M; Homo sapiens, Malme-3M, read-out: LC 50%): 4.6 µM
- GI 100% (MALME-3M; MALME-3M, Melanoma): 1.53 µM
- GI50 (M14; Homo sapiens, M14): 1.07 µM
- CC50 (M14; Homo sapiens, M14, read-out: LC 50%): 4.75 µM
- GI 100% (M14; M14, Melanoma): 2.25 µM
- GI50 (SK-MEL-2; Homo sapiens, SK-MEL-2): 1.74 µM
- CC50 (SK-MEL-2; Homo sapiens, SK-MEL-2, read-out: LC 50%): 9.82 µM
- GI 100% (SK-MEL-2; SK-MEL-2, Melanoma): 4.13 µM
- GI50 (UACC-62; Homo sapiens, UACC-62): 1.21 µM
- CC50 (UACC-62; Homo sapiens, UACC-62, read-out: LC 50%): 5.04 µM
- GI 100% (UACC-62; UACC-62, Melanoma): 2.47 µM
- GI50 (OVCAR-4; Homo sapiens, OVCAR-4): 4.3 µM
- CC50 (OVCAR-4; Homo sapiens, OVCAR-4, read-out: LC 50%): > 10 µM
- GI 100% (OVCAR-4; OVCAR-4, Ovarian Cancer): >10 µM
- GI 100% (786-0; 786-0, Renal Cancer): 0.473 µM
- GI50 (786-0; Homo sapiens, 786-0): 0.0603 µM
- CC50 (786-0; Homo sapiens, 786-0, read-out: LC 50%): 2.52 µM
- GI50 (SN12C; Homo sapiens): 1.25 µM
- CC50 (SN12C; Homo sapiens, read-out: LC 50%): 6.12 µM
- GI 100% (SN12C; Renal Cancer): 2.77 µM
- GI50 (UO-31; Homo sapiens, UO-31): 0.02 µM
- CC50 (UO-31; Homo sapiens, UO-31, read-out: LC 50%): 0.0743 µM
- GI 100% (UO-31; UO-31, Renal Cancer): 0.0385 µM
- GI 100% (NCI/ADR-RES; Breast Cancer): >10 µM
- GI50 (NCI/ADR-RES; Homo sapiens): 2.56 µM
- CC50 (NCI/ADR-RES; Homo sapiens, read-out: LC 50%): > 10 µM
- GI50 (MDA-MB-231/ATCC; Homo sapiens, MDA-MB-231): 1.2 µM
- CC50 (MDA-MB-231/ATCC; Homo sapiens, MDA-MB-231, read-out: LC 50%): 9.18 µM
- GI 100% (MDA-MB-231/ATCC; MDA-MB-231/ATCC, Breast Cancer): 3.32 µM
- GI 100% (HS 578T; HS 578T, Breast Cancer): 2.85 µM
- GI50 (HS 578T; Homo sapiens, Hs-578T): 0.403 µM
- CC50 (HS 578T; Homo sapiens, Hs-578T, read-out: LC 50%): > 10 µM
- GI 100% (BT-549; BT-549, Breast Cancer): 0.316 µM
- GI50 (BT-549; Homo sapiens, BT-549): 0.131 µM
- CC50 (BT-549; Homo sapiens, BT-549, read-out: LC 50%): 0.765 µM
- degree of selectivity against HRAS^G12V [3]: four-fold
